Laboratory results as given in patent publication US9597382B2, “KNTC2 peptides and vaccines containing the same” (ONCOTHERAPY SCIENCE, INC., priority 2013, dated 2017).

Key:
[1] = tested on: peptide-pulsed C1R-A02 cells; test: IFN-gamma ELISPOT assay on CTLs induced with KNTC2 peptides; assay type: cell-based, human; conditions: CTLs induced with peptide-pulsed DCs from HLA-A*0201 positive donor; peptide-pulsed C1R-A02 cells vs control wells
Description: Monocyte-derived dendritic cells (DCs) were used as antigen-presenting cells to induce cytotoxic T lymphocyte (CTL) responses against peptides presented on human leukocyte antigen (HLA). DCs were generated in vitro as described elsewhere (Nakahara S et al., Cancer Res 2003 Jul. 15, 63(14): 4112-8). Specifically, peripheral blood mononuclear cells isolated from a normal volunteer (HLA-A*0201 positive) by Ficoll-Paque plus (Pharmacia) solution were separated by adherence to a plastic tissue culture dish (Becton Dickinson) so as to enrich them as the monocyte fraction. The monocyte-enriched population was cultured in the presence of 1000 IU/ml of granulocyte-macrophage colony-stimulating factor (R&D System) and 1000 IU/ml of interleukin (IL)-4 (R&D System) in AIM-V Medium (Invitrogen) containing 2% heat-inactivated autologous serum (AS). After 7 days of culture, the cytokine-induced DCs were pulsed with 20 micro g/ml of each of the synthesized peptides in the presence of 3 micro g/ml of beta 2-microglobulin for 3 hr at 37 degrees C. in AIM-V Medium. The generated cells appeared to express DC-associated molecules, such as CD80, CD83, CD86 and HLA class II, on their cell surfaces (data not shown). These peptide-pulsed DCs were then inactivated by X ray-irradiated (20 Gy) and mixed at a 1:20 ratio with autologous CD8+ T cells, obtained by positive selection with CD8 Positive Isolation Kit (Dynal). These cultures were set up in 48-well plates (Corning); each well contained 1.5×10^4 peptide-pulsed DCs, 3×10^5 CD8+ T cells and 10 ng/ml of IL-7 (R&D System) in 0.5 ml of AIM-V/2% AS medium. Three days later, these cultures were supplemented with IL-2 (CHIRON) to a final concentration of 20 IU/ml. On day 7 and 14, the T cells were further stimulated with the autologous peptide-pulsed DCs. The DCs were prepared each time by the same way described above. CTL was tested against peptide-pulsed C1R-A02 cells after the 3rd round of peptide stimulation on day 21 (Tanaka H et al., Br J Cancer 2001 Jan. 5, 84(1): 94-9; Umano Y et al., Br J Cancer 2001 Apr. 20, 84(8): 1052-7; Uchida N et al., Clin Cancer Res 2004 Dec. 15, 10(24): 8577-86; Suda T et al., Cancer Sci 2006 May, 97(5): 411-9; Watanabe T et al., Cancer Sci 2005 August, 96(8): 498-506).
(§1) To examine specific CTL activity, IFN-gamma ELISPOT assay and IFN-gamma ELISA were performed. Peptide-pulsed C1R-A02 cells (1×10^4/well) were prepared as stimulator cells. Cultured cells in 48-well plate, CTL lines and CTL clones were used as responder cells. IFN-gamma ELISPOT assay and IFN-gamma ELISA were performed under the manufacturer's procedure.

[2] = tested on: peptide-pulsed C1R-A02 cells; test: IFN-gamma ELISA of CTL lines; assay type: cell-based, human; conditions: target cells pulsed with corresponding peptide vs without peptide pulse
Experimental: CTLs were expanded in culture using the method similar to the one described by Riddell et al. (Walter E A et al., N Engl J Med 1995 Oct. 19, 333(16): 1038-44; Riddell S R et al., Nat Med 1996 Feb. 2(2): 216-23). A total of 5×10^4 CTLs were suspended in 25 ml of AIM-V/5% AS medium with 2 kinds of human B-lymphoblastoid cell lines, inactivated by Mitomycin C, in the presence of 40 ng/ml of anti-CD3 monoclonal antibody (Pharmingen). One day after initiating the cultures, 120 IU/ml of IL-2 were added to the cultures. The cultures were fed with fresh AIM-V/5% AS medium containing 30 IU/ml of IL-2 on days 5, 8 and 11 (Tanaka H et al., Br J Cancer 2001 Jan. 5, 84(1): 94-9; Umano Y et al., Br J Cancer 2001 Apr. 20, 84(8): 1052-7; Uchida N et al., Clin Cancer Res 2004 Dec. 15, 10(24): 8577-86; Suda T et al., Cancer Sci 2006 May, 97(5): 411-9; Watanabe T et al., Cancer Sci 2005 August, 96(8): 498-506).
as §1

[3] = tested on: C1R-A02 cells pulsed with corresponding peptide; test: IFN-gamma ELISA of CTL clones established by limiting dilution; assay type: cell-based, human
Experimental: The dilutions were made to have 0.3, 1, and 3 CTLs/well in 96 round-bottomed micro titer plate (Nalge Nunc International). CTLs were cultured with 1×10^4 cells/well of 2 kinds of human B-lymphoblastoid cell lines, 30 ng/ml of anti-CD3 antibody, and 125 IU/ml of IL-2 in a total of 150 micro 1/well of AIM-V Medium containing 5% AS. 50 micro 1/well of IL-2 were added to the medium 10 days later to reach a final concentration of 125 IU/ml IL-2. CTL activity was tested on the 14th day, and CTL clones were expanded using the same method as described above (Uchida N et al., Clin Cancer Res 2004 Dec. 15, 10(24): 8577-86; Suda T et al., Cancer Sci 2006 May, 97(5): 411-9; Watanabe T et al., Cancer Sci 2005 August, 96(8): 498-506).
as §1

[4] = tested on: COS7 cells transfected with KNTC2 and HLA-A*0201; test: Specific CTL activity against target cells expressing KNTC2 and HLA-A*0201; assay type: cell-based, African green monkey
Description: The cDNA encoding an open reading frame of target genes or HLA-A*0201 was amplified by PCR. The PCR-amplified product was cloned into expression vector. The plasmids were transfected into COS7, which is the target genes and HLA-A*0201-null cell line, using lipofectamine 2000 (Invitrogen) according to the manufacturer's procedure. After 2 days from transfection, the transfected cells were harvested with versene (Invitrogen) and used as the stimulator cells (5×10^4 cells/well) for CTL activity assay.
The established CTL line raised against KNTC2-A02-9-184 (SEQ ID NO: 7) peptide was examined for the ability to recognize target cells that express KNTC2 and HLA-A*0201 molecule. COS7 cells transfected with both the full length of KNTC2 and HLA-A*0201 gene (a specific model for the target cells that express KNTC2 and HLA-A*0201 gene) were prepared as a stimulator cells, and COS7 cells transfected with either full length of KNTC2 or HLA-A*0201 were used as the controls.

Sequence	Peptide specific CTL activity (IFN-gamma production) by IFN-gamma ELISPOT [1]	IFN-gamma production of CTL lines by IFN-gamma ELISA [2]	IFN-gamma production of CTL clones by IFN-gamma ELISA [3]	CTL activity of CTL line against COS7 cells expressing both KNTC2 and HLA-A*0201 ([4]; COS7 transfected with both full length KNTC2 and HLA-A*0201)	CTL activity of CTL line against control COS7 cells ([4]; COS7 transfected with either full length KNTC2 or HLA-A*0201)
AILDQKLNGL (a peptide derived from KNTC2) [SEQ ID NO: 53, 10mer peptide derived from KNTC2, start position 322]	potent IFN-gamma production	–	–	–	–
ALVWLIDCI (a peptide derived from KNTC2) [SEQ ID NO: 7, 9mer peptide derived from KNTC2, start position 184]	potent IFN-gamma production	potent IFN-gamma production	Potent IFN-gamma production	potent CTL activity	no significant specific CTL activity was detected
FLYGFLCPS (a peptide derived from KNTC2) [SEQ ID NO: 2, 9mer peptide derived from KNTC2, start position 131]	potent IFN-gamma production	potent IFN-gamma production	Potent IFN-gamma production	–	–
GLNEEIARV (a peptide derived from KNTC2) [SEQ ID NO: 1, 9mer peptide derived from KNTC2, start position 330]	no specific IFN-gamma production	–	–	–	–
IVAALVWLI (a peptide derived from KNTC2) [SEQ ID NO: 3, 9mer peptide derived from KNTC2, start position 181]	potent IFN-gamma production	potent IFN-gamma production	Potent IFN-gamma production	–	–
KIFTFLYGF (a peptide derived from KNTC2) [SEQ ID NO: 17, 9mer peptide derived from KNTC2, start position 127]	potent IFN-gamma production	–	–	–	–
KIFTFLYGFL (a peptide derived from KNTC2) [SEQ ID NO: 41, 10mer peptide derived from KNTC2, start position 127]	potent IFN-gamma production	–	–	–	–
LVWLIDCIKI (a peptide derived from KNTC2) [SEQ ID NO: 68, 10mer peptide derived from KNTC2, start position 185]	potent IFN-gamma production	–	–	–	–
